In US20240327320A1, “NOVEL ROUTES OF CHEMICAL SYNTHESIS OF 20S(OH)D3, 20S,25(OH)2D3, 20S,23S(OH)2D3, AND 20S,23R(OH)2D3 AND THEIR MODIFICATION OF THE IMMUNE ACTIVITY OF PBMCS” (United State Government as represen ted by the Department …, priority 2023, published 2024):
Read-outs that look alike come from different tables or passages of the source.

Assays:
[1] = test system: CD4 and CD8 T cells from human peripheral blood; experiment: T cell activation in PBMC, flow cytometry with TriMAP/FlowSOM; assay type: cell-based; conditions: 10^-7 M, 24 h, anti-CD3 and anti-CD28, compared to ethanol treated cells
Procedure: Human peripheral blood mononuclear cells (PBMC) from two healthy individuals were obtained from a pre-existing respository. Their use was approved by the University of Alabama at Birmingham Institutional Review Board (Human Subject Assurance Number FWA00005960) as an exempt protocol #4 (Dr C. Raman, P.I.). […] Informed consent is waived in accord with 45CFR46.116 (d). In 48 well plates, 0.5×10^6 PBMC/well were cultured in RPMI1640 containing, 5% charcoal adsorbed FBS and antibiotics and T cells were activated using […] anti-CD3 (clone 145-2C11) and 1 μg/ml anti-CD28 (clone 37.51) for 24 h (Janjetovic Z, et. al., (2021) Endocrinology 162(1), Chaiprasongsuk A, et. al., (2020) Free Radic Biol Med 155 87-98, Slominski A T, et. al., (2011) Am J Physiol Cell Physiol 300(3) C526-41, McGuire D J, et. al., (2014) Eur J Immunol 44(4) 1137-42, Sestero C M, et. al., (2012) J Immunol 189(6) 2918-30). The culture was treated with 10^-7 M 20S(OH)D3, 20S,25(OH)2D3, 20S,23S(OH)2D3, 20S,23R(OH)2D3 or 1α,25(OH)2D3 (Sigma-Aldrich, St. Louis, MO, USA) dissolved in ethanol and diluted in culture medium at the same time of addition of anti-CD3 and anti-CD28. The vehicle control comprised of 0.1% ethanol. At the end of assay the cells were stained with antibodies to CD4 (clone RPA-T4, BV-421), CD19 (clone HB19, BV-510), CD14 (clone HCD14, Alexa 700), CD137 (clone 4B4-1, BV605), CD8a (clone RPA-T8, FITC), ICOS (clone C398.4A, PE/Dazzle), PD1 (clone NAT105, PE), CD80 (clone 2D10, PerCP/Cy5.5), OX40 (clone ACT35, PE/Cy7), CD69 (clone FN50, APC), HLA-DR (clone L243, APC/Fire 750). All antibodies were from Biolegend except anti-CD8 was from Thermo Fisher. The stained cells were analyzed using a CytoFLEX (Beckman Coulter) flow cytometer.
For unbiased analysis of the multidimensional data, acomputational algorithm-based approaches was utilized (Quintelier K, et. al., (2021) Nature Protocols 16(8) 3775-3801). The flow cytometry standard (FCS) data files from each individual and treatment (two individuals, six treatments including ethanol, a total of 12 data files) were processed through the following workflow—compensation, gating on live cells, gating for single cells and subtraction of CD19+(B cells) and CD14+(monocytes). B cells and monocytes were removed from the analysis because only T cells (CD4+ and CD8+) are activated by anti-CD3 and anti-CD28. After these initial gating steps, a key word was added to each of the 12 FCS files, down sampled to 50,000 events/sample and concatenated. Down sampling ascertains that each sample is equally weighted, and concatenation ascertains that statistical analysis is applied equally. The concatenated files were first subjected to TriMAP analysis, a computational algorithm that clusters populations based on triplet relatedness followed by FlowSOM algorithm-based clustering (Quintelier K, et. al., (2021) Nature Protocols 16(8) 3775-3801). To perform these analyses, plugins within FlowJo (BD, CA, USA) were used.
T cells in peripheral blood from two healthy individuals were activated with anti-CD3 and anti-CD28 in the absence (ethanol) or presence of 10^−7 M of each of the vitamin D3 secosteroids for 24 h. The cells were stained for lineage markers (CD4, CD8, CD19, CD14) and a panel of activation induced markers (CD69, ICOS, OX40, CD137, PD1, HLADR) and expression data were collected using a flow cytometer. The gating strategy was live, single cell followed by CD4 and CD8 T cell populations. […]

[2] = cited from earlier work

Row | Molecule | CD4 T cells of population 4 (down modulated CD4, increased CD69 and ICOS) [1] | calcemic activity / toxicity ([2]; literature, at the same doses) | calcemic activity / toxicity ([2]; in vivo)
1 | C=C1CC[C@H](O)C/C1=C/C=C1\CCC[C@@]2(C)[C@H]1CC[C@@H]2[C@@](C)(O)CC(O)CC(C)C (stereo partly shown) [20S,23(OH)2D3, 20,23-dihydroxyvitamin D3] | no effect on this population | – | –
2 | 25(OH)D3 [reference compound] | – | highly toxic | –
3 | C=C1/C(=C\C=C2/CCC[C@]3(C)[C@@H]([C@H](C)CCCC(C)(C)O)CC[C@@H]23)C[C@@H](O)C[C@@H]1O [1α,25(OH)2D3, reference compound] | fewer cells | – | highly toxic
